The numbers were not newly measured in US6777002B1, “Process for microencapsulation of water soluble substances” (Debio Recherche Pharmaceutique S.A., priority 1999, dated 2004), which cites them from elsewhere.

For this data set the following is noted: in water at 20-25° C.

For `ClCCl` [dichloromethane], the solubility in water is given as 1.32 % (by weight).
With `CCOC(C)=O` [ethyl acetate], the solubility in water is 8.70 % (by weight).
